The values that follow come from patent US20180360799A1, “Nitrofuran Derivatives That Induce Apoptosis in Breast Cancer Cells by Activating Protein Expression” (Oklahoma Medical Research Foundation, priority 2015, published 2018).

Structures are written as SMILES.

One experiment concerns caspase-3. The experiment can be described thus: Caspase-3 cleavage by Western blotting in HCC-1806 cells. Format: cell-based, human. The settings on record: HCC-1806, 10 μM, at 8 h and 24 h. As to the method:
FIG. 2A is an image showing apoptosis of HCC-1806 cells after treatment with a 5-nitrofuran-2-amide derivative compound 3d (above). Cells were treated with 3d (10 μM) for the indicated times, and cleavage of caspase-3 was determined by Western blotting. α-Tubulin was used as a loading control. The data shown are representative of 3 independent studies. FIGS. 2B and 2C are live-cell phase-contrast images (magnification 10×) showing treatment with DMSO and (10 μM) 5-nitrofuran-2-amide derivative compound 3d respectively for 24 h. To determine whether the reduction in TNBC cell viability by the 5-nitrofuran-2-amide derivatives was due to the induction of apoptosis, the inventor analyzed cleavage of caspase-3, a critical executioner of apoptosis, in HCC-1806 cells treated with compound 3d. […] To confirm this, HCC-1806 cells were cultured to near confluence and treated with 10 μM 3d or DMSO for 24 h and then imaged by live-cell phase-contrast microscopy.
HCC-1806 cells were seeded in 60-mm dishes at 8×10^5 cells/dish and treated for the indicated times. Cells were then washed with PBS and lysed with lysis buffer (Cell Signaling Technology, Danvers, Mass., US) containing EDTA and phosphatase inhibitors. Aliquots of 20 μg total protein were separated on 7% SDS-PAGE gels (Life Technologies, Carlsbad, Calif., US) and transferred to PVDF membranes. […]
Background: Immunoblotting shows a protein as a band on a membrane.

In the next experiment the test system is CHOP gene. Nature of the experiment: CHOP mRNA by qRT-PCR in HCC-1806 cells. Type of experiment: cell-based, human. As to the method: The results are the means of 4 replicate wells and are representative of 3 independent studies. *P<0.05 and **P<0.01 by Student's t-test compared with cells treated with DMSO (in FIG. 3A) or with 3d for 0 h (in FIG. 3B). […] The results are the means of 4 replicate wells and are representative of 3 independent studies. *P<0.05 and **P<0.01 by Student's t-test compared with cells treated with compound 3d for 0 h. […] Total RNA was extracted using TRIzol reagent (Invitrogen, Carlsbad, Calif.) according to the manufacturer's protocol, and 2 μg of total RNA was reverse transcribed using a Superscript kit (Invitrogen). Real-time PCR was performed in 96-well format using SYBR Select Master Mix (Applied Biosystems, Foster City, Calif.) with an ABI 7500 PCR system (Applied Biosystems). The primer sequences used were: Human CHOP: SEQ ID NO: 1 [NT] and SEQ ID NO: 2 [NT]. Human ATF4: SEQ ID NO: 3 [NT] and SEQ ID NO: 4 [NT]. Human XBP1: SEQ ID NO: 5 [NT] and SEQ ID NO: 6 [NT]. Human Cyclophilin A: SEQ ID NO: 7 [NT] and SEQ ID NO: 8 [NT]. Human GAPDH: SEQ ID NO: 9 [NT] and SEQ ID NO: 10 [NT].
A general note: Quantitative PCR measures a nucleic acid by following its amplification.

For another experiment, the system named is HCC-1143 cells. The experiment can be described thus: Cell viability, CellTiter-Glo, HCC-1143. Format: cell-based. To be noted: Homo sapiens, HCC1143, 72 h; Table 2; cancer cell viability, 3 d treatment; read-out: HCC-1143 IC50. On the procedure:
(§1) Given the known functions of CHOP in ER stress-induced apoptosis^16, 17 and in regulating cancer cell death,^6, 19, 20 the inventor investigated whether compound 1 affects the viability of TNBC cells. Three human TNBC cell lines, HCC-1806, HCC-1143, and HCC-38, were treated with doses of 1 ranging from 0.125 μM to 20 μM and their viability was assessed using the CellTiter-Glo assay, which measures intracellular ATP levels.
(§2) HCC-1806, HCC-1143, or HCC-38 cells were seeded at 3×10^3 cells/well in a 384-well plate and treated with compounds at the indicated concentrations. After 3 d treatment, the medium was aspirated and 20 μL/well of CellTiter-Glo reagent was added. Cell viability was measured with an EnVision multilabel plate reader. The IC50 value for cell viability of each compound was calculated with GraphPad Prism (La Jolla, Calif., US).

The subject of another experiment is p-eIF2α. Nature of the experiment: eIF2α phosphorylation by Western blotting. Format: cell-based, human. The settings on record: 10 μM, indicated times. On the procedure: (§3) FIG. 3D is an image showing ATF4 and p-EIF2α protein levels after treatment with a 5-nitrofuran-2-amide derivative compound 3d. Cells were treated with compound 3d (10 μM) for the indicated times, and ATF4 and p-eIF2a protein levels were analyzed by Western blotting. α-Tubulin was used as a loading control. The data shown are representative of 3 independent studies.
(§4) Prolonged or severe ER stress activates CHOP expression primarily through the PERK branch of the unfolded protein response, although the IRE1α and ATF6 branches also contribute.^5, 18 The 5-nitrofuran-2-amide derivatives could induce CHOP expression by acting as an ER stressor that activates all three branches of unfolded protein response or by preferentially activating a select branch of unfolded protein response. To distinguish between these possibilities, the inventor investigated which branches of the unfolded protein response were affected by compound 3d. Activation of the PERK pathway by ER stress leads to phosphorylation of eIF2α, followed by activation of the transcription and translation of the transcription factor ATF4, a 5′-upstream ORF-containing gene, and ATF4-mediated CHOP expression.^5, 22 To determine whether the PERK pathway is involved in compound 3d-mediated CHOP induction, ATF4 expression and eIF2a phosphorylation in HCC-1806 cells by qRT-PCR and Western blotting were analyzed. […]

A further experiment relates to ATF4 protein. Nature of the experiment: ATF4 protein by Western blotting. Format: cell-based, human. To be noted: 10 μM, indicated times. On the procedure: as §3, §4
The next experiment relates to HCC-38 cells. Nature of the experiment: Cell viability, CellTiter-Glo, HCC-38. Type of experiment: cell-based. The settings on record: Homo sapiens, HCC38, 72 h; Table 2; cancer cell viability, 3 d treatment; read-out: HCC-38 IC50. On the procedure: as §1, §2
A general note: In ATP-based viability assays light output follows the ATP content of the culture.

As to `CC1CCN(c2ccc(NC(=O)c3ccc([N+](=O)[O-])o3)cc2)CC1` [Compound 3d], the “cleavage of caspase-3” value with caspase-3 is given as “increased cleavage of caspase-3 protein levels”. Further, the “CHOP transcription, time dependence” value in the experiment with CHOP gene (HCC-1806, 10 μM, indicated times) is recorded as “increased CHOP transcription in a time-dependent fashion”. The “CHOP mRNA levels relative to DMSO-treated cells” value with CHOP gene (HCC-1806, dose- and time-dependent studies) is “up to 9 fold”. The “CHOP mRNA levels, dose dependence” value in the experiment with CHOP gene (HCC-1806, indicated concentrations, 8 h) is “significantly increased CHOP mRNA levels in a dose-dependent manner”. Besides, the IC50 (usually the midpoint of a concentration-inhibition curve) in the experiment with HCC-1143 cells is 2100 nM; in the experiment with HCC-38 cells, 2500 nM. Further, in the experiment on p-eIF2α, the “phosphorylation of eIF2α” value is recorded as “substantially increased the phosphorylation of eIF2a”. Moreover, the “ATF4 expression, protein” value with ATF4 protein was “significantly increased ATF4 expression”.
